Measured values as given in article PMC9138505, “Small Molecule 20S Proteasome Enhancer Regulates MYC Protein Stability and Exhibits Antitumor Activity in Multiple Myeloma” (Biomedicines, 2022).
Several values for one entry are separate records, joined by “and”; a condition that tells them apart may be missing. Equal entries are not always repeated.

Test system: RPMI-8226 cells
Assay: Gene expression profiling, NanoString nCounter PanCancer Pathways Panel, ROSALIND analysis
Assay type: cell-based, human
Settings: RPMI-8226, TCH-165 samples 1-3
Description: RPMI-8226 cells were treated with vehicle or TCH-165 (10 μM) for 4 h. Total RNA was obtained using the mirVana miRNA Isolation Kit, with phenol (Thermofisher Scientific; AM1560; Waltham, MA, USA). Total RNA was quantified by Qubit (Thermofisher Scientific; Q32855; Waltham, MA, USA). and gene expression was evaluated against the nCounter® PanCancer Pathways Panel^TM according to the standard NanoString protocol.
Data were analyzed by ROSALIND® [36] with a hyperscale architecture developed by ROSALIND, Inc. (San Diego, CA, USA). Normalization, fold changes and p-values were calculated using criteria provided by NanoString. ROSALIND follows the nCounter® Advanced Analysis protocol of dividing counts within a lane by the geometric mean of the normalizer probes from the same lane. Housekeeping probes to be used for normalization are selected based on the geNorm algorithm, as implemented in the NormqPCR R library. Fold changes and p-values are calculated using the fast method as described in the nCounter Advanced Analysis 2.0 User Manual. The p-value adjustment is performed using the Benjamini–Hochberg method of estimating false discovery rates (FDR). Clustering of genes for the final heatmap of differentially expressed genes was done using the PAM (Partitioning Around Medoids) method using the fpc R library. Hypergeometric distribution was used to analyze the enrichment of pathways, gene ontology, domain structure and other ontologies. The topGO R library was used to determine local similarities and dependencies between GO terms in order to perform Elim pruning correction. Several database sources were referenced for enrichment analysis, including Interpro [40], NCBI [41], MSigDB [42, 43], REACTOME [44], WikiPathways. Enrichment was calculated relative to a set of background genes relevant to the experiment.

SMILES: CCOC(=O)[C@]1(c2ccccc2)N=C(c2ccc(OC)cc2)N(Cc2ccccc2)[C@@H]1c1ccc(NCc2ccccc2)cc1 [TCH-165]
- PDGFA normalized gene expression: 6.283 and 6.012 and 6.0068
- PDGFB normalized gene expression: 4.649 and 4.855 and 4.437
- PDGFRA normalized gene expression: 4.401 and 4.3768 and 3.876
- PDGFRB normalized gene expression: 4.86 and 4.614 and 4.483
- PGF normalized gene expression: 5.308 and 4.817 and 4.238
- PIK3CA normalized gene expression: 10.0553 and 10.0309 and 10.0578
- PIK3CB normalized gene expression: 6.955 and 6.836 and 6.778
- PIK3CD normalized gene expression: 5.445 and 5.636 and 4.975
- PIK3CG normalized gene expression: 8.477 and 8.424 and 8.357
- PIK3R1 normalized gene expression: 7.74 and 7.729 and 7.668
- PIK3R3 normalized gene expression: 10.4707 and 10.3784 and 10.3886
- PIK3R5 normalized gene expression: 8.581 and 8.361 and 8.483
- PIM1 normalized gene expression: 9.677 and 9.621 and 9.503
- PITX2 normalized gene expression: 3.723 and 3.817 and 3.39
- PKMYT1 normalized gene expression: 9.448 and 9.494 and 9.482
- PLA1A normalized gene expression: 4.571 and 4.7789 and 4.5707
- PLA2G2A normalized gene expression: 5.723 and 5.0613 and 5.549
- PLA2G3 normalized gene expression: 5.955 and 5.7789 and 5.549
- PLA2G4A normalized gene expression: 9.821 and 9.8479 and 9.947
- PLA2G4C normalized gene expression: 3.986 and 4.324 and 4.0682
- PLA2G5 normalized gene expression: 4.208 and 4.855 and 5.0068
- PLA2G10 normalized gene expression: 4.793 and 4.569 and 4.9095
- PLAT normalized gene expression: 5.101 and 4.855 and 4.805
- PLAU normalized gene expression: 5.758 and 5.452 and 5.461
- PLCB1 normalized gene expression: 7.331 and 7.169 and 7.1906
- PLCB4 normalized gene expression: 8.221 and 8.1619 and 8.141
- PLCE1 normalized gene expression: 3.571 and 3.962 and 3.291
- PLCG2 normalized gene expression: 7.802 and 7.657 and 7.688
- PLD1 normalized gene expression: 4.723 and 4.524 and 4.0068
- PML normalized gene expression: 9.305 and 9.103 and 9.111
- POLB normalized gene expression: 8.277 and 8.166 and 8.094
- POLD1 normalized gene expression: 6.955 and 6.97 and 7.225
- POLE2 normalized gene expression: 7.876 and 7.784 and 7.712
- POLR2D normalized gene expression: 10.3534 and 10.1749 and 10.2456
- POLR2H normalized gene expression: 9.625 and 9.653 and 9.593
- POLR2J normalized gene expression: 8.023 and 8.1988 and 7.922
- PPARG normalized gene expression: 5.308 and 4.093 and 4.841
- PPARGC1A normalized gene expression: 5.156 and 4.855 and 4.5707
- PPP2CB normalized gene expression: 9.355 and 9.581 and 9.539
- PPP2R1A normalized gene expression: 10.9153 and 10.8543 and 10.8588
- PPP2R2B normalized gene expression: 5.208 and 3.891 and 3.876
- PPP2R2C normalized gene expression: 4.401 and 4.154 and 4.653
- PPP3CA normalized gene expression: 8.9359 and 8.866 and 8.858
- PPP3CB normalized gene expression: 6.793 and 6.5 and 6.673
- PPP3CC normalized gene expression: 7.784 and 7.44 and 7.5547
- PPP3R1 normalized gene expression: 12.1844 and 12.0743 and 12.0585
- PRDM1 normalized gene expression: 9.955 and 9.965 and 9.796
- PRKAA2 normalized gene expression: 5.445 and 4.927 and 5.238
- PRKACA normalized gene expression: 10.3765 and 10.3832 and 10.3727
- PRKACB normalized gene expression: 9.149 and 8.936 and 8.955
- PRKACG normalized gene expression: 5.955 and 4.996 and 4.975
- PRKAR1B normalized gene expression: 7.319 and 7.093 and 7.231
- PRKAR2A normalized gene expression: 10.8995 and 10.8368 and 10.7359
- PRKAR2B normalized gene expression: 4.924 and 5.5 and 5.291
- PRKCA normalized gene expression: 5.61 and 5.739 and 5.858
- PRKCB normalized gene expression: 5.101 and 5.5 and 5.1271
- PRKCG normalized gene expression: 3.208 and 3.154 and 2.805
- PRKDC normalized gene expression: 10.6509 and 10.6549 and 10.5707
- PRKX normalized gene expression: 6.924 and 6.699 and 6.769
- PRL normalized gene expression: 5.156 and 4.7789 and 4.483
- PRLR normalized gene expression: 4.401 and 4.324 and 4.483
- PROM1 normalized gene expression: 5.488 and 4.817 and 5.1271
- PTCH1 normalized gene expression: 6.423 and 6.1393 and 6.303
- PTEN normalized gene expression: 10.0245 and 10.0523 and 10.0068
- PTPN11 normalized gene expression: 10.4091 and 10.3872 and 10.2825
- PTPRR normalized gene expression: 5.156 and 5.27 and 4.876
- PTTG2 normalized gene expression: 10.7067 and 10.7173 and 10.7103
- RAC1 normalized gene expression: 10.809 and 10.6987 and 10.6841
- RAC2 normalized gene expression: 9.175 and 9.2187 and 9.226
- RAC3 normalized gene expression: 7.412 and 7.085 and 7.42
- RAD21 normalized gene expression: 12.3086 and 12.2658 and 12.2586
- RAD50 normalized gene expression: 8.5605 and 8.589 and 8.653
- RAD51 normalized gene expression: 8.142 and 8.041 and 8.102
- RAD52 normalized gene expression: 7.767 and 7.625 and 7.698
- RAF1 normalized gene expression: 10.0005 and 9.906 and 9.965
- RASA4 normalized gene expression: 8.175 and 8.284 (2×)
- RASAL1 normalized gene expression: 7.884 and 7.864 and 8.034
- RASGRF1 normalized gene expression: 5.355 and 5.27 and 5.1271
- RASGRF2 normalized gene expression: 4.401 and 4.154 and 4.39
- RASGRP1 normalized gene expression: 3.571 and 3.27 and 2.805
- RASGRP2 normalized gene expression: 5.355 and 4.7789 and 5.184
- RB1 normalized gene expression: 10.4258 and 10.2516 and 10.3605
- RBX1 normalized gene expression: 11.212 and 11.2858 and 11.2821
- RELA normalized gene expression: 9.023 and 9.033 and 8.932
- RELN normalized gene expression: 3.208 and 3.154 and 2.653
- RET normalized gene expression: 4.488 and 3.154 and 4.1271
- RFC3 normalized gene expression: 10.5818 and 10.4756 and 10.5331
- RFC4 normalized gene expression: 10.5805 and 10.6642 and 10.6099
- RHOA normalized gene expression: 10.324 and 10.1814 and 10.1759
- RIN1 normalized gene expression: 5.308 and 5.324 and 5.211
- RNF43 normalized gene expression: 5.044 and 4.569 and 4.528
